Source: PMC8148378 (Chemical Science, 2019)
≈ marks a conversion by molar mass, not a printed value.

Legend:
In vivo tolerance study = test: In vivo tolerance study; design: species or system male CD-1 mice
S. marcescens DSM-30121 = test: MIC determination, larger panel; assay type: cell-based; conditions: Serratia marcescens, DSM30121, read-out: MIC S. marcescens
E. cloacae DSM-30054 = test: MIC determination, larger panel; assay type: cell-based; conditions: Enterobacter cloacae, DSM30054, read-out: MIC E. cloacae
E. coli ATCC25922 = test: Neutropenic murine thigh infection model, i.v. administration; assay type: in vivo, male ICR mice
K. pneumoniae DSM-30104 = test: MIC determination, larger panel; assay type: cell-based; conditions: Klebsiella pneumoniae, DSM30104, read-out: MIC K. pneumoniae
E. aerogenes DSM-30053 = test: MIC determination, larger panel; assay type: cell-based, Enterobacter aerogenes; conditions: Klebsiella aerogenes, DSM30053, read-out: MIC E. aerogenes
A. baumannii DSM-30008 = test: MIC determination, larger panel; assay type: cell-based; conditions: Acinetobacter baumannii, DSM30008, read-out: MIC A. baumannii, DSM-30008
P. mirabilis DSM-4479 = test: MIC determination, larger panel; assay type: cell-based; conditions: Proteus mirabilis, DSM4479, read-out: MIC P. mirabilis
[1] = Single dosing pharmacokinetic study; assay type: in vivo, male CD-1 outbred mice; conditions: 5 mg/kg, plasma
[2] = tested on: P. aeruginosa ESBL 1 DSM-24600; test: MIC determination, larger panel; assay type: cell-based; conditions: Pseudomonas aeruginosa, DSM24600, read-out: MIC P. aeruginosa ESBL 1
E. coli strain ATCC25922 = test: Neutropenic thigh infection model, s.c. and i.v. administration; assay type: in vivo, neutropenic CD-1 mice; conditions: 24 h after infection
[3] = as above; assay type: in vivo, neutropenic CD-1 mice; conditions: male, CD-1, mouse, muscle, other: intravenous then subcutaneous
E. faecalis ATCC-29212 = test: MIC determination, larger panel; assay type: cell-based; conditions: Enterococcus faecalis, ATCC29212, read-out: MIC E. faecalis
E. coli WT-3 = test: MIC determination, larger panel; assay type: cell-based; conditions: Escherichia coli, WT3, read-out: MIC E. coli WT-3
[4] = tested on: P. aeruginosa ESBL 2 DSM-46316; test: MIC determination, larger panel; assay type: cell-based; conditions: Pseudomonas aeruginosa, DSM46316, read-out: MIC P. aeruginosa ESBL 2

CC(C)Oc1c(NC(=O)c2ccc(NC(=O)[C@H](CC(N)=O)NC(=O)c3ccc(NC(=O)c4ccc(C#N)cc4)cc3)cc2)ccc(C(=O)Nc2ccc(C(=O)O)cc2)c1O [Compound 22]
adverse effects (In vivo tolerance study; 5 mg kg^−1 i.v. four times every 6 hours (20 mg kg^−1 per day)): no adverse effect | adverse effects (In vivo tolerance study; 10 mg kg^−1 i.v. four times every 6 hours (40 mg kg^−1 per day)): no adverse effect | adverse effects (In vivo tolerance study; 20 mg kg^−1 i.v. four times every 6 hours (80 mg kg^−1 per day)): one animal in the group treated at 20 mg kg^−1 showed adverse effects | MIC (S. marcescens DSM-30121): > 64 µg/mL | MIC (E. cloacae DSM-30054): 0.25 µg/mL (≈ 0.308 µM) | Log10 variation from vehicle control (E. coli ATCC25922; 20mg/kg/day i.v.): −3.97 CFU/g | Log10 variation from vehicle control (E. coli ATCC25922; 40mg/kg/day i.v.): −5.32 CFU/g | Log10 variation from vehicle control (E. coli ATCC25922; 50mg/kg/day i.v.): −4.89 CFU/g | MIC (K. pneumoniae DSM-30104): 0.5 µg/mL (≈ 0.616 µM) | MIC (E. aerogenes DSM-30053): 0.06 µg/mL (≈ 0.0739 µM) | MIC (A. baumannii DSM-30008): 1 µg/mL (≈ 1.23 µM) | MIC (P. mirabilis DSM-4479): > 64 µg/mL | V/F (volume of distribution) ([1]; i.v.): 3.5 L/kg | AUC ([1]; male, CD-1, mouse, iv, area under the curve (AUC), 5 mg kg^−1, plasma): ~2000 ng·h/mL | MIC [2]: 4 µg/mL (≈ 4.93 µM) | reduction of the bacterial load in lung (E. coli strain ATCC25922): 3 log units | bacterial load in kidney (E. coli strain ATCC25922; all dosing groups, compared to vehicle-treated animals): complete bacterial clearance | concentration at 24 h [3]: ~100 ng/mL | MIC (E. faecalis ATCC-29212): 0.5 µg/mL (≈ 0.616 µM) | MIC (E. coli WT-3): 0.25 µg/mL (≈ 0.308 µM) | MIC [4]: 4 µg/mL (≈ 4.93 µM)
